Laboratory results reported in US6677309B1, “Anti-cancer drug aldehyde conjugate drugs with enhanced cytotoxicity compounds, compositions and methods” (University Technology Corporation, priority 1997, dated 2004).
Like-named read-outs stand apart in the source and are kept apart here.

Tests used:
[1] = system: PC-3; assay: Prostate cancer cell cytotoxicity, crystal violet assay, PC-3; format: cell-based, human; conditions: 3 h drug
Protocol: Toxicity to the three prostate cancer cell lines, LNCaP, DU-145, and PC-3 were measured in two different media, RPMI-1640 and DMEM (Dulbecco's Modified Eagle Medium), both supplemented with 10% fetal bovine serum.
Cell lines were maintained in vitro in RPMI 1640 media or DMEM, each supplemented with 10% fetal bovine serum, 2 mM L-glutamine, 10 mM HEPES buffer, penicillin (100 units/mL) and streptomycin (100 μg/mL).
Cells were dissociated with trypsin/EDTA, counted, and suspended in growth media (RPMI or DMEM) to a concentration of 5.6×10^3 cells/mL. Cell suspensions were dispensed in 180 μL aliquots into 96-well tissue culture plates. […] Each 100× solution was diluted 10× in growth media (RPMI or DMEM), and a 20 μL aliquot of the resulting 10× solution was immediately (<10s) added to-the appropriate lane. Additionally, one lane was treated with 20 μL of 10% DMSO in growth media (no drug) and one lane was treated with 200 μL of 1.5 M Tris buffer (no cells). The cells were incubated with the drugs for 3 h at 37° C. The drug solutions were then removed and replaced with 200 μL of fresh media. The cells were incubated for 4 days (7 days for PC-3 cells in DMEM) at 37° C. in a humidified atmosphere of 5% CO2 and 95% air. Cell survival was determined using a crystal violet assay as described earlier (Fenick, D. J. et al (1997) J. Med. Chem. 40: 2452-2461).

[2] = system: MCF-7/ADR cells; assay: Cytotoxicity versus time of drug hydrolysis before addition to cells; format: cell-based, human; conditions: 1 μmol equiv./L, 25° C., serum-free media containing 10% DMSO, MCF-7/ADR survival
Protocol: The results of these experiments are illustrated in FIG. 2. […] However, the dimeric formaldehyde conjugate of daunorubicin completely lost its effectiveness within 25 min of standing in an aqueous solution. […] This biphasic curve is probably due to the decay mechanism of the dimeric formaldehyde conjugate of doxorubicin to doxorubicin in aqueous solution.
The drug solution was diluted 1:100 with DMSO, then 1:10 in serum-free RPMI media 1640. A volume of 20 μL of the resulting 0.5 μM (1 μmol equiv/L) drug solution was immediately added to the t=0 min lane. The remaining lanes were treated at 5 min intervals with 20 μL of the remaining drug solution, which was held at 25° C. between additions. Additionally, one lane was treated with 20 μL/well of serum-free RPMI media containing 10% DMSO (no drug) and one lane replaced with 200 μL/well of 1.5 M Tris buffer (no cells). Each lane was incubated at 37° C. for 3 h.

[3] = Hydrolysis in aqueous phosphate buffer, HPLC; format: physicochemical
Protocol: See Example 16. […] The DMSO was present to increase solubility.
Second, the kinetics of hydrolysis were measured in pH 6.0 phosphate buffer.
A 960 μL solution of pH 7.3 phosphate buffer was heated to 37° C. […] No change in the chromatography was observed if pH, 7.3 phosphate buffer was used as the eluent in place of pH 7.4 TEAA buffer.

SMILES	IC50 ([1]; DMEM with 10% fetal bovine serum, 7 days growth, read-out: IC50 Values, PC-3/DMEM (converted))	IC50 ([1]; RPMI-1640 with 10% fetal bovine serum, 4 days growth, read-out: IC50 Values, PC-3/RPMI-1640 (converted))	time of standing in an aqueous solution until effectiveness completely lost [2]	half-life at 25 µM ([3]; pH 6.0 phosphate buffer, 37° C.)	time the equilibrium mixture is stable ([3]; pH 7.3, at equilibrium)	half-life ([3]; pH 7.3 phosphate buffer, 37° C., read-out: half-life of hydrolysis, forward reaction (A⇄B) to C+D (converted))
COc1cccc2c1C(=O)c1c(O)c3c(c(O)c1C2=O)C[C@@](O)(C(C)=O)C[C@@H]3O[C@H]1C[C@H]2[C@H](OCN2CN2CO[C@@H]3[C@H](C)O[C@@H](O[C@H]4C[C@](O)(C(C)=O)Cc5c(O)c6c(c(O)c54)C(=O)c4c(OC)cccc4C6=O)C[C@@H]32)[C@H](C)O1 [DAUNF, bis(3′-N-(3′-N,4′-O-methylenedaunorubicinyl))methane]	0.5 nM	2.5 nM	≤ 25 min	–	–	–
COc1cccc2c1C(=O)c1c(O)c3c(c(O)c1C2=O)CC(O)(C(=O)CO)CC3OC1CC2C(OCN3CN2COC2C(C)OC(OC4C[C@](O)(C(=O)CO)Cc5c(O)c6c(c(O)c54)C(=O)c4c(OC)cccc4C6=O)CC23)C(C)O1 (stereo partly drawn) [EPIF]	–	–	–	0.25 h	at least 2 days	~2 h
